The values that follow are results of earlier work, collected in patent US4127525A, “Novel tridecapeptides, intermediates therefor, and compositions and methods employing said tridecapeptides” (priority 1977, dated 1978).

For data set [1], the system named is partially purified brain opiate receptor sites. The note with it: natural peptide.
A further data set concerns rat. The note with it: injected directly into the brain of the rat.

With “H-Tyr-Gly-Gly-Phe-Met-OH [methionine enkephalin]”, the “binding to partially purified brain opiate receptor sites” value in data set [1] is given as “binds stereo-specifically”. The analgesic activity entry with rat is listed as “only weak analgesic agent of short duration”.
